Results from the supplement of paper PMC10307832.

How the values were obtained:
Assay in all cases: relative viability (nuclei count vs DMSO), 5 days (fraction); higher = more cells survive
[1] = compound: CC[C@H](CO)Nc1nc(NCc2ccccc2)c2ncn(C(C)C)c2n1 [Seliciclib] + CC(=O)Nc1cccc(-n2c(=O)n(C3CC3)c(=O)c3c(Nc4ccc(I)cc4F)n(C)c(=O)c(C)c32)c1 [Trametinib] (partner 0.02 µM)
Procedure, shortened: (§1)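 Nuclei were stained with Hoechst during a one-step fixation (final 0.05% Triton X-100, 1% formaldehyde, 1 ug/ml Hoechst) carried out 5 days after dosing, then counted on 4× images. The cells, lung cancer lines in 1536-well plates, had been dosed by pin tool the day after seeding with one drug alone or a fixed anchor-drug dose plus five library-drug doses (not always all listed) in √10 steps. Relative viability is the nuclei count in treated wells divided by that in vehicle wells, and each value is the median of duplicate plates.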

[2] = compound: CC[C@H](CO)Nc1nc(NCc2ccccc2)c2ncn(C(C)C)c2n1 [Seliciclib] + O=C(c1cc(Cc2n[nH]c(=O)c3ccccc23)ccc1F)N1CCN(C(=O)C2CC2)CC1 [Olaparib] (partner 8 µM)
Procedure, shortened: as §1

[3] = compound: CC[C@H](CO)Nc1nc(NCc2ccccc2)c2ncn(C(C)C)c2n1 [Seliciclib] + N=C(N)NC(=N)NCCc1ccccc1 [Phenformin] (partner 250 µM)
Procedure, shortened: as §1

[4] = compound: CC[C@H](CO)Nc1nc(NCc2ccccc2)c2ncn(C(C)C)c2n1 [Seliciclib] + CS(=O)(=O)CCNCc1ccc(-c2ccc3ncnc(Nc4ccc(OCc5cccc(F)c5)c(Cl)c4)c3c2)o1 [Lapatinib] (partner 2 µM)
Procedure, shortened: as §1

Cell Line	relative viability ([1]; first compound 0.08 µM)	relative viability ([1]; first compound 0.253 µM)	relative viability ([1]; first compound 0.8 µM)	relative viability ([1]; first compound 2.53 µM)	relative viability ([1]; first compound 8 µM)	relative viability ([2]; first compound 0.08 µM)	relative viability ([2]; first compound 0.253 µM)	relative viability ([2]; first compound 0.8 µM)	relative viability ([2]; first compound 2.53 µM)	relative viability ([2]; first compound 8 µM)	relative viability ([3]; first compound 0.08 µM)	relative viability ([3]; first compound 0.253 µM)	relative viability ([3]; first compound 0.8 µM)	relative viability ([3]; first compound 2.53 µM)	relative viability ([3]; first compound 8 µM)	relative viability ([4]; first compound 0.08 µM)	relative viability ([4]; first compound 0.253 µM)	relative viability ([4]; first compound 0.8 µM)	relative viability ([4]; first compound 2.53 µM)	relative viability ([4]; first compound 8 µM)
SW 900	0.632	0.833	0.734	0.514	0.524	0.769	0.89	0.79	0.721	0.437	0.62	0.6	0.404	0.643	0.418	–	–	–	–	–
NCI-H2087	0.202	0.203	0.217	0.145	0.196	0.597	0.616	0.38	0.577	0.514	0.537	0.495	0.411	0.41	0.385	1.13	1.14	1.02	0.749	0.965
LU99A	0.586	0.484	0.5	0.485	0.393	0.252	0.264	0.284	0.279	0.278	0.898	0.937	0.817	0.705	0.714	1.01	0.923	1.02	0.666	0.537
HCC-366	0.332	0.253	0.368	0.317	0.239	0.335	0.422	0.35	0.456	0.234	0.618	0.716	0.571	0.62	0.506	1.01	1.15	0.987	1.22	0.863
EKVX	0.373	0.252	0.286	0.31	0.328	0.772	1.08	0.749	0.682	0.775	–	0.255	0.189	0.215	0.199	0.197	0.473	0.18	0.166	0.216
NCI-H522	0.735	0.672	0.778	0.673	0.713	0.797	0.621	0.533	0.64	0.59	0.731	0.655	0.645	0.599	0.709	–	–	–	–	–
NCI-H1755	0.804	0.658	0.757	0.776	0.71	0.882	0.914	0.873	0.885	0.846	0.601	0.6	0.586	0.584	0.599	1.02	1.02	1.02	0.963	1.03
